Results taken from patent US20020182594A1, “Chemomagnetic retrieval of CMV and CMV infected cells” (priority 2001, published 2002).

B1: fractalkine: the CX3C chemokine, expressed on certain endothelial cell surfaces and dendritic cells; native ligand of US28 (protein, UniProt P78423 25-397, looked up)
Fractalkine: QHHGVTKCNITCSKMTSKIPVALLIHYQQNQASCGKRAIILETRQHRLFCADPKEQWVKDAMQHLDRQAAALTRNGGTFEKQIGEVKPRTTPAAGGMDESVVLEPEATGESSSLEPTPSSQEAQRALGTSPELPTGVTGSSGTRLPPTPKAQDGGPVGTELFRVPPVSTAATWQSSAPHQPGPSLWAEAKTSEAPSTQDPSTQASTASSPAPEENAPSEGQRVWGQGQSPRPENSLEREEMGPVPAHTDAFQDWGPGSMAHVSVVPVSSEGTPSREPVASGSWTPKAEEPIHATMDPQRLGVLITPVPDAQAATRRQAVGLLAFLGLLFCLGVAMFTYQSLQGCPRKMAGEMAEGLRYIPRSCGSNSYVLVPV

How the values were obtained:
chemokine receptors = assay: Binding specificity among chemokine receptors tested
US28 [1] = molecular target: T1, US28 (Human cytomegalovirus, UniProt P69332); assay: Inhibition of binding of native chemokine ligands (fractalkine, eotaxin) to US28; parameters: species or system human CMV (HCMV); details: native chemokine ligands such as fractalkine and eotaxin, among others
T1 sequence (P69332 whole entry): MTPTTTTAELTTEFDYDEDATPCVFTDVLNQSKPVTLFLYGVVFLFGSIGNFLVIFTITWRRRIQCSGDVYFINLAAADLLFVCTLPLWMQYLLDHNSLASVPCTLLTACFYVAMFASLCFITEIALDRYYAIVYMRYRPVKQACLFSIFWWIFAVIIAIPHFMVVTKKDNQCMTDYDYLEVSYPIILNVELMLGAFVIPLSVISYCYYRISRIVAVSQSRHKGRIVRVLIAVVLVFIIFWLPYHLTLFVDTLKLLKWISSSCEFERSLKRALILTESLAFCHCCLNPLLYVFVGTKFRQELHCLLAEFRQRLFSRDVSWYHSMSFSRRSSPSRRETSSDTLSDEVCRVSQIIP

US28 [2] = molecular target: T1, US28; assay: Binding affinity of fractalkine to US28; parameters: species or system human CMV (HCMV); details: read-out: K1 (affinity of binding to US28)

Molecule | specificity of binding to US28 among all chemokine receptors tested (chemokine receptors) | inhibition of the binding of native chemokine ligands to US28 (US28 [1]) | Ki (US28 [2]) [pM]
CCN1CCC[C@H]1CNC(=O)c1c(OC)ccc(I)c1O [S(−)-IBZM, S(−)-3-Iodo-2-hydroxy-6-methoxy-N[(1-ethyl-2-pyrrolidinyl)methyl]benzamide] | bind specifically to US28 | effective inhibitor | 
B1 |  |  | ~50
